# Assay results as given in patent US11759461B2, “Small molecule inhibitors of cancer stem cells and mesenchymal cancer types” (The Scripps Research Institute, priority 2017, dated 2023).
# System: FOXC2-expressing HMLER cells
# Assay: Cell Titer Glo viability of FOXC2-HMLER cells (high throughput screen and 10-point response)
# Assay type: cell-based
# Settings: Homo sapiens; scored relative to parent compound 2; 72 hours; read-out: Activity Score, inhibition of FOXC2-expressing HMLER cells by Formula II compounds
# How it was run: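 FOXC2-HMLER cells (HMLER run in parallel) seeded at 1,000 cells/well in MEGM, attached 1 h, then given compound in DMSO (2 μM in the screen). After 72 h, viability was read by Cell Titer Glo luminescence.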
row,SMILES,IC50 [µM]
1,COc1ccc2cc(CNc3ccc(C)cc3)c(=O)n(CC(=O)Nc3ccccc3C)c2c1 [Compound 2GZ],> 20
2,COc1ccc2cc(CNc3ccc(C)cc3)c(=O)n(CC(=O)Nc3ccc(F)c(F)c3)c2c1 [Compound 2G],1 to 20
3,CCc1ccc(NCc2cc3ccc(OC)cc3n(CC(=O)Nc3ccccc3)c2=O)cc1 [Compound 2HA],> 20
4,COc1ccc2cc(CNc3ccccc3)c(=O)n(CC(N)=O)c2c1 [Compound 2HB],> 20
5,CCc1ccc(NCc2cc3ccc(OC)cc3n(CC(=O)Nc3ccccc3Cl)c2=O)cc1 [Compound 2HC],> 20
6,COc1ccc2cc(CNc3ccc(C)cc3)c(=O)n(CC(=O)Nc3ccccc3OC)c2c1 [Compound 2HD],> 20
7,COc1ccc(NCc2cc3ccc(OC)cc3n(CC(=O)Nc3cc(C)ccc3C)c2=O)cc1 [Compound 2HE],> 20
8,COc1ccc2cc(CNc3ccccc3)c(=O)n(CC(=O)Nc3ccc(OC)c(OC)c3)c2c1 [Compound 2HF],> 20
9,CCc1ccc(NCc2cc3ccc(OC)cc3n(CC(=O)Nc3cccc(C)c3)c2=O)cc1 [Compound 2HG],> 20
10,COc1ccc2cc(CNc3ccc(C)cc3)c(=O)n(CC(=O)NCCc3ccccc3)c2c1 [Compound 2HH],> 20
11,COc1ccc(NCc2cc3cc(OC)c(OC)cc3n(CC(=O)Nc3cccc(C)c3)c2=O)cc1 [Compound 2HI],> 20
12,COc1ccc2cc(CNc3ccc(C)cc3)c(=O)n(CC(=O)Nc3cccc(Cl)c3)c2c1 [Compound 2HJ],> 20
13,CCc1ccc(NCc2cc3ccc(OC)cc3n(CC(=O)Nc3ccc(F)cc3)c2=O)cc1 [Compound 2HK],> 20
14,COc1ccc2c(c1)cc(CNc1ccc(OC)c(OC)c1)c(=O)n2CC(=O)Nc1ccc(C)cc1 [Compound 2HL],> 20
15,COc1ccc(NC(=O)c2ccccc2NC(=O)CN2C(=O)c3ccccc3C2=O)cc1 [Compound 2HM],> 20
16,COc1ccc2cc(CNc3ccccc3)c(=O)n(CC(=O)Nc3cc(C)cc(C)c3)c2c1 [Compound 2HN],> 20
17,COc1ccc(NCc2cc3ccc(C)cc3n(CC(=O)Nc3ccc(C)c(C)c3)c2=O)cc1OC [Compound 2HO],> 20
18,COc1ccc(NCc2cc3cc4c(cc3n(CC(=O)Nc3c(C)cccc3C)c2=O)OCCO4)cc1 [Compound 2HP],> 20
19,CCc1ccc(NCc2cc3ccc(OC)cc3n(CC(=O)Nc3cc(C)cc(C)c3)c2=O)cc1 [Compound 2HQ],> 20
20,CCc1ccc(NCc2cc3cc(OC)c(OC)cc3n(CC(=O)Nc3ccc(C)cc3)c2=O)cc1 [Compound 2HR],> 20
21,COc1ccccc1NC(=O)Cn1c(=O)c(CNc2ccc(C)cc2)cc2cc(OC)c(OC)cc21 [Compound 2HS],> 20

row,SMILES,IC50 [µM]
1,COc1ccc2cc(CNc3ccccc3)c(=O)n(CC(=O)Nc3ccccc3C)c2c1 [Compound 2HT],> 20
2,COc1ccc(NC(=O)Cn2c(=O)c(CNc3ccc(OC)c(OC)c3)cc3ccc(C)cc32)cc1 [Compound 2HU],> 20
3,COc1ccc2cc(CNc3ccc(C)cc3)c(=O)n(CC(=O)Nc3ccc(C(C)=O)cc3)c2c1 [Compound 2HV],> 20
4,COc1ccc2cc(CNc3ccc(OC)c(OC)c3)c(=O)n(CC(=O)Nc3ccc(C)cc3)c2c1 [Compound 2HW],> 20
5,COc1cccc(NC(=O)Cn2c(=O)c(CNc3ccc(C)cc3)cc3ccc(OC)cc32)c1 [Compound 2HX],> 20
6,COc1cccc(CNC(=O)Cn2c(=O)c(CNc3ccc(C)cc3)cc3ccc(OC)cc32)c1 [Compound 2HY],> 20
7,COc1ccc2cc(CNc3ccc(C)cc3)c(=O)n(CC(=O)NCc3ccc(Cl)cc3)c2c1 [Compound 2HZ],> 20
8,COc1ccc2cc(CNc3ccc(C)cc3)c(=O)n(CC(=O)Nc3cccc(Cl)c3C)c2c1 [Compound 2H],1 to 20
9,COc1ccc2cc(CNc3ccccc3)c(=O)n(CC(=O)NCc3ccc(F)cc3)c2c1 [Compound 2IA],> 20
10,COc1ccc(NCc2cc3cc(OC)c(OC)cc3n(CC(=O)Nc3ccccc3)c2=O)cc1 [Compound 2IB],> 20
11,COc1ccc(NCc2cc3ccc(OC)cc3n(CC(=O)Nc3cccc(OC)c3)c2=O)cc1 [Compound 2IC],> 20
12,COc1ccc(NCc2cc3cc4c(cc3n(CC(=O)Nc3cccc(C)c3)c2=O)OCCO4)cc1 [Compound 2ID],> 20
13,COc1cc2cc(CNc3ccccc3)c(=O)n(CC(=O)Nc3cccc(Cl)c3)c2cc1OC [Compound 2IE],> 20
14,COc1cc(NC(=O)Cn2c(=O)c(CNc3ccccc3)cc3ccc(C)cc32)cc(OC)c1 [Compound 2IF],> 20
15,COc1ccc(NCc2cc3cc4c(cc3n(CC(=O)Nc3cc(C)cc(C)c3)c2=O)OCCO4)cc1 [Compound 2IG],> 20
16,CCc1ccc(NCc2cc3cc(OC)c(OC)cc3n(CC(=O)Nc3cc(C)cc(C)c3)c2=O)cc1 [Compound 2IH],> 20
17,CCOc1ccc(NC(=O)Cn2c(=O)c(CNc3ccccc3)cc3ccc(OC)cc32)cc1 [Compound 2II],> 20
18,COc1ccc(NCc2cc3cc(C)ccc3n(CC(=O)Nc3cc(C)cc(C)c3)c2=O)cc1 [Compound 2IJ],> 20
19,CCc1ccc(NC(=O)Cn2c(=O)c(CNc3ccc(OC)cc3)cc3cc4c(cc32)OCCO4)cc1 [Compound 2IK],> 20
20,CCc1ccc(NCc2cc3ccc(OC)cc3n(CC(=O)Nc3ccc(OC)cc3)c2=O)cc1 [Compound 2IL],> 20
21,COc1ccc2cc(CNc3ccc(C)cc3)c(=O)n(CC(=O)Nc3c(C)cccc3C)c2c1 [Compound 2IM],> 20

row,SMILES,IC50 [µM]
1,CCc1ccc(NCc2cc3cc(OC)c(OC)cc3n(CC(=O)Nc3cc(C)ccc3C)c2=O)cc1 [Compound 2I],1 to 20
2,CCc1ccc(NCc2cc3ccc(OC)cc3n(CC(=O)Nc3ccc(C)cc3C)c2=O)cc1 [Compound 2J],1 to 20
3,COc1ccc2cc(CNc3ccc(C)cc3)c(=O)n(CC(=O)Nc3c(C)cc(C)cc3C)c2c1 [Compound 2K],1 to 20
4,COc1ccc(NCc2cc3ccc(C)cc3n(CC(=O)Nc3cc(C)ccc3C)c2=O)cc1OC [Compound 2L],1 to 20
5,COc1ccc2cc(CNc3ccc(C)cc3)c(=O)n(CC(=O)Nc3ccc(C)cc3Cl)c2c1 [Compound 2M],1 to 20
6,CCc1ccc(NCc2cc3cc4c(cc3n(CC(=O)Nc3ccccc3CC)c2=O)OCCO4)cc1 [Compound 2N],1 to 20
7,COc1ccc2cc(CNc3ccc(C)cc3)c(=O)n(CC(=O)Nc3ccccc3F)c2c1 [Compound 2O],1 to 20
8,CCc1ccc(NCc2cc3cc4c(cc3n(CC(=O)Nc3ccccc3C)c2=O)OCCO4)cc1 [Compound 2P],1 to 20
9,COc1ccc2cc(CNc3ccc(C)cc3)c(=O)n(CC(=O)Nc3ccc(Cl)cc3)c2c1 [Compound 2Q],1 to 20
10,COc1ccc2cc(CNc3ccccc3)c(=O)n(CC(=O)Nc3cc(C)ccc3C)c2c1 [Compound 2R],1 to 20
11,CCOc1ccc(NC(=O)Cn2c(=O)c(CNc3ccc(C)cc3)cc3cc4c(cc32)OCCO4)cc1 [Compound 2S],1 to 20
12,CCc1ccc(NCc2cc3ccc(OC)cc3n(CC(=O)Nc3ccccc3F)c2=O)cc1 [Compound 2T],1 to 20
13,COc1ccc2cc(CNc3ccc(C)cc3)c(=O)n(CC(=O)Nc3cc(C)ccc3C)c2c1 [Compound 2U],1 to 20
14,COc1cc2cc(CNc3ccccc3)c(=O)n(CC(=O)Nc3ccc(C(C)C)cc3)c2cc1OC [Compound 2V],1 to 20
15,COc1ccc(NCc2cc3cc4c(cc3n(CC(=O)Nc3cc(C)ccc3C)c2=O)OCCO4)cc1 [Compound 2W],1 to 20
16,COc1cc2cc(CNc3ccccc3)c(=O)n(CC(=O)Nc3cc(C)ccc3C)c2cc1OC [Compound 2X],1 to 20
17,COc1cc2cc(CNc3ccccc3)c(=O)n(CC(=O)Nc3cccc(Cl)c3C)c2cc1OC [Compound 2Y],1 to 20
18,CCOc1ccc(NC(=O)Cn2c(=O)c(CNc3ccc(CC)cc3)cc3ccc(OC)cc32)cc1 [Compound 2Z],1 to 20
19,COC(=O)c1ccccc1NC(=O)Cn1c(=O)c(CNc2ccccc2)cc2ccc(OC)cc21 [Compound 2],< 1

# Same assay, conditions: Homo sapiens; scored relative to parent compound 3; 72 hours; read-out: Activity Score, inhibition of FOXC2-expressing HMLER cells by Formula III compounds
row,SMILES,IC50 [µM]
1,Cc1ccc(C(=O)N2CCN(c3ccc(F)cc3)CC2)cc1-n1nnc2cccnc21 [Compound 3AA],1 to 20
2,Cc1ccc(CN2CCC(CNC(=O)c3ccc(C)c(-n4nnc5cccnc54)c3)CC2)cc1 [Compound 3AB],1 to 20
3,Cc1ccc(C)c(N2CCN(CCCNC(=O)c3ccc(C)c(-n4nnc5cccnc54)c3)CC2)c1 [Compound 3AC],1 to 20
4,Cc1ccc(Cl)cc1N1CCN(C(=O)c2cccc(-n3nnc4cccnc43)c2C)CC1 [Compound 3AD],1 to 20
5,Cc1c(C(=O)NC2CC2)cccc1-n1nnc2cccnc21 [Compound 3AE],1 to 20
6,Cc1c(C(=O)N2CCC(Cc3ccccc3)CC2)cccc1-n1nnc2cccnc21 [Compound 3AF],1 to 20
7,Cc1ccc(C)c(N2CCN(CCCNC(=O)c3cccc(-n4nnc5cccnc54)c3C)CC2)c1 [Compound 3AH],1 to 20
8,O=C(c1ccc(-n2nnc3cccnc32)cc1)N1CCC(Cc2ccccc2)CC1 [Compound 3AI],1 to 20
9,Cc1c(C(=O)N2CCN(c3ccccc3)CC2)cccc1-n1nnc2cccnc21 [Compound 3AJ],1 to 20
10,Cc1c(C(=O)NCCCN2CCC(Cc3ccccc3)CC2)cccc1-n1nnc2cccnc21 [Compound 3AK],1 to 20
11,CN(Cc1ccccc1)C(=O)c1ccc(-n2nnc3cccnc32)cc1 [Compound 3AL],> 20
12,O=C(c1ccc(-n2nnc3cccnc32)cc1)N1CCN(c2ccccc2)CC1 [Compound 3AM],> 20
13,O=C(c1ccc(-n2nnc3cccnc32)cc1)N1CCN(C2CCCCC2)CC1 [Compound 3AN],> 20
14,CCN(Cc1ccccc1)C(=O)c1ccc(-n2nnc3cccnc32)cc1 [Compound 3AO],> 20
15,COc1ccc(N2CCN(C(=O)c3ccc(-n4nnc5cccnc54)cc3)CC2)cc1 [Compound 3AP],> 20
16,Cc1cc(C(=O)N2CCC(C)CC2)ccc1-n1nnc2cccnc21 [Compound 3AQ],> 20
